Values of other authors in paper PMC7377239, “Cardiovascular Effects of Polychlorinated Biphenyls and Their Major Metabolites” (Environmental Health Perspectives, 2020).

test system: porcine pulmonary artery–derived EC; parameters: method as in Hennig et al. 2002, 2005; Toborek et al. 1995; details: ref Hennig et al. 2002, 2005, Toborek et al. 1995; cited from earlier work

Which EC toxicity does the source give for `Clc1ccc(-c2cc(Cl)c(Cl)cc2Cl)cc1Cl` [PCB 118] here?
The EC toxicity was “potent inducers of EC toxicity”.

For `Clc1ccc(-c2cc(Cl)c(Cl)c(Cl)c2Cl)cc1` [PCB 114], which EC toxicity is on record?
The EC toxicity was “potent inducers of EC toxicity”.

Which EC toxicity does the source give for `Clc1ccc(-c2ccc(Cl)c(Cl)c2)cc1Cl` [PCB 77] here?
Its EC toxicity is “potent inducers of EC toxicity”.
